Results from publication PMC2099433, “The binding site for neohesperidin dihydrochalcone at the human sweet taste receptor” (BMC Structural Biology, 2007).
Changes are numbered by the printed parent chain. Where a SMILES comes first, the peptide text is derived from it.

Experiments:
[1] = target: T1, hTAS1R2 + hTAS1R3 R790Q^ex3 (Homo sapiens, UniProt Q7RTX0+Q8TE23, R790Q); assay: Calcium response (FLIPR), hTAS1R3 mutant coexpressed with hTAS1R2; assay type: cell-based; details: variant R790Q^ex3; for Emax: read-out: maximal signal (% of wt)
T1 construct: expressed in transfected cells; host or cells: HEK293T cells stably expressing G16Gust44
T1 sequence (Q8TE23 20-839): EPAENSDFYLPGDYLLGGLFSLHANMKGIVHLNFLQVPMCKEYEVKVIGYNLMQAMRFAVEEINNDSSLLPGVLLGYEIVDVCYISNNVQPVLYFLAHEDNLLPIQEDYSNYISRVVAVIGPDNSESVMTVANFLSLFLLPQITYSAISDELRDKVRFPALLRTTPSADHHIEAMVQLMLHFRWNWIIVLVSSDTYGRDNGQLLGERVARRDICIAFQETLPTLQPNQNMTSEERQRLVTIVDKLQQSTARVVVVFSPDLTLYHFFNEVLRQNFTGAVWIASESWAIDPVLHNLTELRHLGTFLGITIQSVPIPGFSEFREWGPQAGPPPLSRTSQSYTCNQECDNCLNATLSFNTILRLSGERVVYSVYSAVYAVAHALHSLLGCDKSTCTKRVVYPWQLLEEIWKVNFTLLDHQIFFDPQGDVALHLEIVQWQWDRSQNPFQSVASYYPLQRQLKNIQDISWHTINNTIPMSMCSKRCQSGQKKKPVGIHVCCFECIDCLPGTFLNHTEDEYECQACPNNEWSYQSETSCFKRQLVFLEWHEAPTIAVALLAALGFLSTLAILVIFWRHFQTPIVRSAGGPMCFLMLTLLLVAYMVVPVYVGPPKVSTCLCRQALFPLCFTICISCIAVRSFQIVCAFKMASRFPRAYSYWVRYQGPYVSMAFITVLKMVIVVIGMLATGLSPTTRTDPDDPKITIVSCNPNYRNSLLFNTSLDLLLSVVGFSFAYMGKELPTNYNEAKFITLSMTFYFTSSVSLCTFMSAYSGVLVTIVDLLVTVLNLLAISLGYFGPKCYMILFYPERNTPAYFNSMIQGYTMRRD
T1 sequence (Q7RTX0 21-852 R790Q): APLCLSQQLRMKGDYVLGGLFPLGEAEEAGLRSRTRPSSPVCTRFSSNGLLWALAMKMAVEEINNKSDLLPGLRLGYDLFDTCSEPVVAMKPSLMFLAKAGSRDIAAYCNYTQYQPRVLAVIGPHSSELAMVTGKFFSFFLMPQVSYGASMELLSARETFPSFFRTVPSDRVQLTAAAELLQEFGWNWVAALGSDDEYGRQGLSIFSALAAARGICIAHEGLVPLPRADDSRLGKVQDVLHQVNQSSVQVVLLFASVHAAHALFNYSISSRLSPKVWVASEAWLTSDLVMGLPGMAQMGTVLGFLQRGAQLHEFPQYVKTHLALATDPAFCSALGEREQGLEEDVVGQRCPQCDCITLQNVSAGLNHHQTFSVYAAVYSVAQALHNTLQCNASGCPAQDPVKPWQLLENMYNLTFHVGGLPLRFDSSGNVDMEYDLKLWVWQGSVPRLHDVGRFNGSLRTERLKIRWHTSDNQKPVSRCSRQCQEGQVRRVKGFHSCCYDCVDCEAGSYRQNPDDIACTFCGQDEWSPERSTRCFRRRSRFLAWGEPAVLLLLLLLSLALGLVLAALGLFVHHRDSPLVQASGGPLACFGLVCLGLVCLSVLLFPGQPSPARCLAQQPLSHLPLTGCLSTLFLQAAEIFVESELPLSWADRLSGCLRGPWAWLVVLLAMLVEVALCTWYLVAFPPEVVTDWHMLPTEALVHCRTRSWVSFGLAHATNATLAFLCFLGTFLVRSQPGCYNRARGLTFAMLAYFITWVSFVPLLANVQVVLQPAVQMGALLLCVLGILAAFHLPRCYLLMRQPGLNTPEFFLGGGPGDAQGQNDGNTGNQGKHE
Method in brief: (§1)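 HEK293T cells stably expressing chimeric G16Gust44 were transiently transfected with C-terminally HSV-tagged hTAS1R2 and mutant hTAS1R3, then loaded 24 h later with Fluo4-AM for 1 h. Calcium mobilization after sweet-tastant application was read by FLIPR, mock-corrected and expressed as ΔF/F.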

[2] = target: T2, hTAS1R2 + hTAS1R3 S729A^5.42 (Homo sapiens, UniProt Q7RTX0+Q8TE23, S729A); assay: as above; assay type: cell-based; details: variant S729A^5.42; for Emax: read-out: maximal signal (% of wt)
T2 construct: expressed in transfected cells; host or cells: HEK293T cells stably expressing G16Gust44
T2 sequence (Q8TE23 20-839): T1 sequence (Q8TE23 20-839)
T2 sequence (Q7RTX0 21-852 S729A): T1 sequence (Q7RTX0 21-852 R790Q) with S709A, Q770R
Method in brief: as §1

COc1ccc(CCC(=O)c2c(O)cc(O[C@@H]3O[C@H](CO)[C@@H](O)[C@H](O)[C@H]3O[C@@H]3O[C@@H](C)[C@H](O)[C@@H](O)[C@H]3O)cc2O)cc1O [NHDC, neohesperidin dihydrochalcone]
EC50 [1]: 100 ± 60 µM
Emax [1]: 77 ± 15%
EC50 [2]: 200 ± 100 µM
Emax [2]: 80 ± 16%

COC(=O)[C@H](Cc1ccccc1)NC(=O)[C@@H](N)CC(=O)O [aspartame] (HELM PEPTIDE1{D.F.[CO[*:1]]}$$$$V2.0)
EC50 [1]: 900 ± 400 µM
Emax [1]: 71 ± 30%
EC50 [2]: 900 ± 400 µM
Emax [2]: 72 ± 20%
